Values quoted from earlier work as cited in US12447051B2, “Multi-functional analgesic-releasing wound dressing” (University of Utah Research Foundation, priority 2020, dated 2025).

What was measured:
[1] = tested on: Primary human dermal fibroblast cell cultures; conditions: bupivacaine concentration of the extracts

Row | Molecule | cytotoxic threshold [1] | in vivo degradation
1 | CCCCN1CCCCC1C(=O)Nc1c(C)cccc1C (centres unmarked) [bupivacaine] | 0.5 % w/w | 
2 | poly(lactide-co-caprolactone) [PLC] |  | greater than 6 months
